The test deals with skin (epidermis+dermis) of healthy female volunteers. Nature of the test: Comparative study of skin atrophy: skin thickness and density by ultrasound (Dermascan C) after topical treatment of the inner arm. The class given is in vivo, human. The text has this:
Comparative Study of Hydrocortisone and Hydrocortisone Combined with β-cyclodextrin Conjugated Retinyl Palmitate Complex with Respect to the Development of Skin Atrophy
The study was run according to the protocol described below and was approved by the local regional ethics committee before the study was initiated.
The study included 10 healthy female volunteers. The average age was 43.2 years. They received treatment with hydrocortisone cream 1% on the inner part of one arm (right or left) once daily for 4 weeks. […] On the opposite arm they were treated with hydrocortisone cream 1% and after 10 minutes Nourella Cream containing β-cyclodextrin conjugated retinyl palmitate complex was applied (Pharma Medico; Aarhus, Denmark). Treatments were randomized so that half of the participants treated the right arm with hydrocortisone and the left with the combination and vice versa.
The skin was inspected clinically in the beginning and at the end of the study and objective measurement of the skin thickness and density was done by ultrasound (Dermascan C).

Setting [1] is: after 4 weeks of once daily topical treatment, inner arm, ultrasound, ns.

Consider `C[C@]12CCC(=O)C=C1CC[C@@H]1[C@@H]2[C@@H](O)C[C@@]2(C)[C@H]1CC[C@]2(O)C(=O)CO` [Hydrocortisone, hydrocortisone], for which the “Average reduction of skin thickness (epidermis+dermis)” value (4 weeks once daily topical, change vs baseline, p=0.07 between arms) was found to be 15%. Moreover, under setting [1], the “Skin density, After 4 weeks” value is given as 1830.0 ns pixel and the “Skin thickness, After 4 weeks” value was determined as 0.954 ns mm. The “Development of low echogenic dark areas (dermis density)” value (after 4 weeks of treatment, ultrasound, p=0.08) was “Low echogenic dark areas develop”. Moreover, the “Cross-section of the skin: thickness and density vs baseline (figure)” value (after treatment for 4 weeks, ultrasound picture) is “The skin gets thinner and the density decrease”. Further, the “Skin density, Baseline” value (baseline, before treatment, inner arm, ultrasound) is reported as 1503.5 pixel. Besides, the “Skin thickness, Baseline” value (baseline, before treatment, inner arm, ultrasound, 10 healthy female volunteers) turned out to be 1.122 mm. The Skin atrophy result (used for 4 weeks, FIG. 1 and FIG. 2) is recorded as “significant skin atrophy”.

Source of the values: US20100048521A1, “COMBINATION OF A GLUCO-KORTICOID AND BETA-CYCLODEXTRIN CONJUGATED VITAMIN A-DERIVATE COMPLEX” (priority 2006, published 2010).
